Columns and labels:
[1] = Acute toxicity (method of Litchfield and Wilcoxon), rat; conditions: Wistar, in vivo
Source text: (§1) The acute toxicity has been determined in Swiss mouses and in Wistar rats for different administration routes, according to the method of Litchfield J. T. and Wilcoxon [J. Pharm. Exp. Therap. 96,99-113 (1949)].

[2] = Pharmacokinetic tests after oral administration; type: in vivo; conditions: oral administration of I and sobrerol in equimolar doses, in the animal
[3] = Acute toxicity (method of Litchfield and Wilcoxon), mouse; conditions: Swiss, in vivo
Source text: as §1

male Wistar rats = assay: Bronchosecretogogue activity (Mawatari technique); type: in vivo, rat; conditions: 500 mg/kg/os, FlNa = Sodium fluoresceine
Source text: The broncosecretogogue activity has been determined in male Wistar rats by per os administration according to the method of Mawatari [Mawatari H., Kagoshima Daigaku, Igaku-Zasshi, 27, 561 (1976)], comparing I with carboxymethylcysteine, sobrerol and guaiphenesin at the doses hereinafter stated.

[4] = tested on: tracheo-bronchial mucus from rabbits; assay: Fluidifying activity in vivo, microviscosimeter on tracheo-bronchial mucus; conditions: 500 mg/kg/os, rabbit
Source text: The fluidifying effect has been determined with the microviscosimeter on the tracheo-bronchial mucus from rabbits after administration by oral route, comparing I with sobrerol, at the doses hereinafter stated.

[5] = Solubility of the isolated compound; type: physicochemical
Source text: 73 Grams of an oil, impossible to crystallize but perfectly pure in TLC, are obtained.

Compound: CC1=CCC(C(C)(C)O)CC1OC(=O)c1cccs1 (centres unmarked) [Compound I, thiophen-2-carboxylate of 2-methyl-5-(1-hydroxy-1-methylethyl)-cyclohexen-2-yl]
- LD50 ([1]; ip): 2650 mg/kg
- LD50 ([1]; oral, os): > 4000 mg/kg
- sobrerol concentrations at pulmonary level [2]: higher sobrerol concentrations at pulmonary level
- LD50 ([3]; ip): 2500 mg/kg
- LD50 ([3]; oral, os): > 4000 mg/kg
- % Increase of FlNa in comparison with controls (male Wistar rats): 76.4%
- % Reduction of the mucus viscosity [4]: 39.8%
- solubility in the common organic solvents ([5]; common organic solvents): soluble in the common organic solvents
- solubility in water ([5]; water): almost insoluble in water

Compound: CC1=CCC(C(C)(C)O)CC1O (centres unmarked) [Sobrerol, 2-methyl-5-(1-hydroxy-1-methyl-ethyl)-2-cyclohexen-1-ol, reference compound]
- % Increase of FlNa in comparison with controls (male Wistar rats): 33.4%
- % Reduction of the mucus viscosity [4]: 15.6%

Source: patent EP0096116B1, “Thiophene derivative having a mucoregulating and anticough activity, process for its preparation and pharmaceutical compositions containing it” (AUSONIA FARMACEUTICI S.r.l., priority 1982, dated 1983)
